Results reported in patent US7875270B2, “Treatment solution and method for preventing posterior capsular opacification by selectively inducing detachment and/or death of lens epithelial cells” (Abbott Medical Optics Inc., priority 2002, dated 2011).

Experiments:
Type in all cases: cell-based
Conditions in all cases: 28 μM, 112 μM and 224 μM bumetanide, ≦200 mM NaCl, 3 μl of 5N NaOH
[1] = tested on: human retinal-pigmented epithelial cells (RPECs); assay: Confluent RPEC monolayers exposed to solutions; MTT cell viability
Procedure: (§1) As described below, the confluent monolayers of LECs, CEDCs, and RPECs grown in 96-well flat-bottom plates are exposed to varying concentrations of NaCl (an osmolyte) solution. Two hundred μl of NaCl solution (prepared as described below) are added to each well at concentrations of 137 mM, 170 mM, 340 mM, 680 mM, 1360 mM and 2000 mM NaCl, respectively. The solutions have a pH of 8.0±0.4. The concentrations of NaCl correspond to final osmolarities of about 285 to 4000 mOsm/L, respectively.
(§2) The primary and first passages of human lens epithelial cells, human corneal endothelial cells, and human retinal-pigmented epithelial cells are cultured. The LECs, the CEDCs, and the RPECs are isolated from post-mortem eyes by using standard techniques of cell isolation and enzyme digestion. See Uebersax E D, Grindstaff R D and Defoe D M Exp Eye Res. 2000 March; 70(3): 381-90; Wagner L M, Saleh S M, Boyle D J, and Takemoto D J. Mol Vis. 2002 Mar. 14; 8: 59-66; Cammarata P R, Schafer G, Chen S W, Guo Z, and Reeves R E. Invest Ophthalmol Vis Sci. 2002 February; 43(2): 425-33; Rakic J M, Galand A, and Vrensen G F. Exp Eye Res. 2000 November; 71(5): 489-94. LECs and CEDCs are cultured in Eagle's minimum essential medium (MEM). RPECs are cultured in Ham's F10 medium, supplemented with 2 mM glutamine, 25 mmol/L Hepes, pH 7.4, 10 U/mL penicillin, and 10 μg/mL streptomycin and 15% heat-inactivated foetal cow serum (FCS). The primary cultured LECs, CEDCs, and RPECs are sub-cultured at 10^4 cells/wells in 96-well flat-bottom plates until they reached 90 to 100% confluence. These cells are grown to confluence in an incubator with a humidified atmosphere of 5% CO2 at 37° C. The cells are kept in a confluent state for overnight before assays.
(§3) After treatment, the treated cells are thoroughly washed, and cultured with fresh media for twelve hours before cell viability is assessed. The capability of these cells to survive at the indicated hypertonic stress levels is assessed by an MTT assay 12-24 hours post-exposure.
(§4) MTT assay is an assay to assess mitochondria function, performed as described by Mosmann (Mosmann, T. J Immunol Methods. 1983 Dec. 16; 65(1-2): 55-63. The tetrazolium salt 3-(4,5-dimethylthiazol-2-yl)-2,5-diphenyl tetrazolium bromide (MTT; supplied by Sigma Chemical Co.) is dissolved in Phosphate's Balanced Salt (PBS) Solutions at 5 mg/ml and sterilized by passage through a 0.22 μm Millipore filter. MTT stock solution is added to growth media at a ratio of 1 to 10. Cells are incubated with this growth media for three to four hours. In cells that are alive at the time of adding MTT, mitochondrial dehydrogenase cleaves the tetrazolium ring into a dark blue formazan reaction product, which builds up in the cell. MTT-reacted cultures are observed under brightfield microscopy without further processing. Cells in each well are scored as MTT-positive if they are completely filled with reaction product (in the case of unattached cells) or contain many formazan crystals emanating from multiple foci (in the case of attached or spread cells). MTT-reacted cultures are then lysised by dimethyl sulfoxide (DMSO) and read in a Microplate Reader to obtain a measure of cell viability.
Confluent monolayers of RPECs are prepared as described in Example 1. These cells are exposed for ten minutes to 200 μl/well of the solutions comprising increasing concentrations of NaCl (137 mM, 170 mM, 340 mM, 680 mM, 1360 mM and 2000 mM) at varying pH (8.4±0.5 and 10.6±0.5). The solutions of NaCl are prepared as described in Example 1. The pH of the solutions is adjusted with additions of 1 μl and 5 μl of 5N NaOH as described Example 3.
Confluent monolayers of LECs and RPECs are prepared as described in Example 1. […]
Confluent monolayers of LECs, CEDCs and RPECs are prepared as described in Example 1. […]
To assess whether there is any side effect of this treatment on other ocular cells, confluent monolayers of LECs, CEDCs and RPECs are prepared as described in Example 1. […]

[2] = tested on: human corneal endothelial cells (CEDCs); assay: Confluent CEDC monolayers exposed to solutions; MTT cell viability
Procedure: as §1
as §2, with “The primary cultured LECs, CEDCs, and RPECs are sub-cultured at 10^4 cells/wells in 96-well flat-bottom plates until they reached 90 to 100% confluence. These cells are grown to confluence in an incubator with a humidified atmosphere of 5% CO2 at 37° C. The cells are kept in a confluent state for overnight before assays.” left out
as §3
as §4, with “MTT-reacted cultures are observed under brightfield microscopy without further processing.” left out, “viability. […]” for “viability.”

[3] = tested on: human lens epithelial cells (LECs); assay: Confluent LEC monolayers exposed to solutions; MTT cell viability and microscopy

**Q.** Which “RPECs killed or removed” value [1] does the source give for `CCCCNc1cc(C(=O)O)cc(S(N)(=O)=O)c1Oc1ccccc1` [bumetanide] here?
**A.** less than 20%

**Q.** What about the “CEDCs killed or removed” value [2] of the same compound?
**A.** < 30%

**Q.** What about the “LECs showing MTT negative response” value [3] of the same compound?
**A.** ~100%

**Q.** And the “LEC response under phase-contrast microscopic observation” value ([3]; about ten minutes)?
**A.** nearly all of the LECs shrink, detach and/or die
